For experiment [1], the target named is T1, WT STING (Homo sapiens, UniProt Q86WV6, H232R). The experiment is described as follows: 293T WT STING standard reporter assay. The experiment is classed as cell-based. The settings on record: 293T wtSTING-FL cells; 7 hours with compound, no digitonin; ISRE firefly luciferase reporter. (In general: Reporter assays use an easily measured gene product as a stand-in for the process of interest.)
Target sequence in this assay (Q86WV6 whole entry H232R): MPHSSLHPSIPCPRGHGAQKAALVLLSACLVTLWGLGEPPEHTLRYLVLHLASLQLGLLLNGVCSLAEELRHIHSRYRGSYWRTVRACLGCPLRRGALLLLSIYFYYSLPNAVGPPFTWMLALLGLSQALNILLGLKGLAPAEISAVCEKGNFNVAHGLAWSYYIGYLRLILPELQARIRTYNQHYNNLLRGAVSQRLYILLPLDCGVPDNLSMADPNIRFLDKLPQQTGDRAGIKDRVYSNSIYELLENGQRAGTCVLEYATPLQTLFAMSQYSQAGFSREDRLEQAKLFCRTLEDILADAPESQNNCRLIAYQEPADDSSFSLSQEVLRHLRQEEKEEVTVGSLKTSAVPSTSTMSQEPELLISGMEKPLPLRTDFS

Experiment [2] concerns the target T1, WT STING. The experiment is described as follows: Digitonin assay using 293T wtSTING-FL reporter cells. Type of experiment: cell-based. The settings on record: 293T wtSTING-FL cells; 30 minutes in Digitonin buffer, then 5 hours; ISRE firefly luciferase reporter. An excerpt:
Two complementary oligonucleotides of the sequence […] […] […] […] […] The oligonucleotides were mixed in equal molar amounts, hybridized, and cleaved by restriction endonucleases HindIII (cat. #. R0104S, NEB, Ipswich, USA) and BglII (cat. # R0144S, NEB, Ipswich, USA). Ultimately, they were ligated into plasmid pGL4.27 (cat. # E6651, Promega, Madison, USA) linearized with the same enzymes. As result the sequence with four ISRE sites was placed upstream of the minimum promoter of firefly luciferase reporter gene.
After 5 minutes incubation at room temperature (RT), 250 µL of the mixture was added dropwise to the cells in one well. Cells were incubated 36 hours at 37° C. with 5% CO2, and then detached with 0.05% Trypsin and 0.22 g/L EDTA (both cat. # L0941, Biowest, Riverside, USA).
Transfected cells were seeded onto poly-D-lysine coated six well plates at density 50,000 cells per 1 cm^2 in DMEM medium with high glucose containing 10% heat inactivated FBS, 30 µg/mL blasticidin (cat. # ant-bl-05, InvivoGen, San Diego, USA), 0.06 mg/ml Penicillin G and 0.1 mg/ml Streptomycin Sulfate (both cat. #. L0018, Biowest, Riverside, USA). The medium was replenished every 3 - 4 days until visible colonies of cells resistant to blasticidin were formed.
Blasticidin resistant cells stably expressing WT STING were further transfected with […] plasmid following the same procedure as described above. […] Homogeneous culture of stably double transfected cells was prepared by limiting dilution of cells in 96 well plates and wells with cells were selected that originated from a single cell.
The medium was removed next day and three fold serial dilutions of compounds in Digitonin buffer containing 50 mmol.l^-1 HEPES (cat. # H3375, Sigma Aldrich, Czech Republic) pH 7.0, 100 mmol.1^-1 KCl, 3 mmol.l^-1 MgCl2, 0.1 mmol.l^-1 DTT (cat. # D0632, Sigma Aldrich, Czech Republic), 85 mmol.1^-1 Sucrose (cat. # S7903, Sigma Aldrich, Czech Republic), 0.2% BSA (cat. # A2153, Sigma Aldrich, Czech Republic), 1 mmol.l^-1 ATP (cat. # A1852, Sigma Aldrich, Czech Republic), 0.1 mmol.1^-1 GTP (cat. # G8877, Sigma Aldrich, Czech Republic), and 10 µg/mL Digitonin A (cat. # D141, Sigma Aldrich, Czech Republic) were added to the cells. The buffer was removed after 30 minutes incubation at 37° C. with 5% CO2, the cells were washed once with 100 µl of cultivation medium, and 100 µl of medium was added to each well. The plates with cells were incubated for 5 hours at 37° C. with 5% CO2, 50µl of the medium was removed and 30 µl of ONE-Glo^Tm Luciferase Assay System reagent (cat. # E6120, Promega, Madison, USA) was added to each well. Luminescence was read on Synergy H1 (Biotek, Winooski, USA).
Target sequence in this assay (Q86WV6 whole entry H232R): as above

For a further experiment, the target named is T2, AQ STING (G230A-R293Q) (Homo sapiens, UniProt Q86WV6, G230A/H232R/R293Q).
T2 construct: 8xHis (N, cleaved yes); SUMO (N, cleaved yes); made in house; host or cells: E. coli Rosetta-gami B (DE3)
The experiment is described as follows: Differential Scanning Fluorimetry with AQ STING. The experiment is classed as binding. The settings on record: thermal shift vs apoprotein; 150 µM CDN; truncated human AQ STING 0.1 mg/ml; read-out: DSF ΔTm AQ STING. An excerpt:
(§1) Purified PCR products were cleaved with restriction enzymes BamHI (cat. # R0136S, NEB, Ipswich, USA) and NotI (cat. # R0189S, NEB, Ipswich, USA) and cloned into the pSUMO vector linearized with the identical enzymes.
(§2) Bacterial pellets were re-suspended in ice-cold lysis buffer containing 50 mmol.1^-1 TrisCl (cat. # T1503, Sigma Aldrich, Czech Republic) pH 8.0, 300 mmol.1^-1 NaCl, 3 mmol.1^-1 β-mercaptoethanol (cat. # M6250, Sigma Aldrich, Czech Republic), 10% glycerol (cat. # G5516, Sigma Aldrich, Czech Republic) and 20 mmol.1^-1 imidazole (cat. # I5513, Sigma Aldrich, Czech Republic) using Dounce homogenizer. DNase I (cat. # D5025, Sigma Aldrich, Czech Republic) and RNase A (cat. # R6513, Sigma Aldrich, Czech Republic) were added (final concentration 50 µg/ml) together with MgCl2 (final concentration 5 mmol.l^-1) to the homogenate and bacteria were lysed using French Press G-M™ High-Pressure Cell Press Homogenizer (1500 psi, 3 cycles). […] The resin was poured into a chromatography column, washed with 50 ml buffer A (50 mmol.1^-1 TrisCl (pH 8.0), 800 mmol.1^-1 NaCl, 3 mmol.1^-1 β-mercaptol; 10% glycerol; 20 mmol.1^-1 imidazole) and 8-His-SUMO tagged STING proteins were eluted with 15 ml buffer A containing 300 mmol.1^-1 imidazole. […] Proteins were concentrated with Amicon® Ultra-15 10 K device (cat. # UFC901008, Merck Millipore, Billerica, USA) and flash frozen in liquid N2.
(§3) 20 µL solutions of the reaction mixtures were pipetted in triplicates into 96 well optical reaction plates and thermal denaturation of samples were performed on real time PCR cycler (LightCycler® 480 Instrument II - Roche, Basel, Switzerland). The first derivative of the thermal denaturation curves was performed to calculate denaturing temperatures of STING - CDN complexes and STING apoproteins. The thermal shift for each CDN was calculated by subtracting the average denaturing temperature of STING apoprotein from the average denaturing temperature of STING CDN complex.
On the technique in general: DSF heats the sample and reads unfolding from a dye or from intrinsic fluorescence.

The target in experiment [3] is T1, WT STING. The experiment is described as follows: Differential Scanning Fluorimetry with WT STING. The experiment is classed as binding. More on the design: 8xHis (N, cleaved yes); SUMO (N, cleaved yes); made in house; host or cells: E. coli Rosetta-gami B (DE3). Conditions: thermal shift vs apoprotein; 150 µM CDN; truncated human WT STING 0.1 mg/ml; read-out: DSF ΔTm WT STING.
Source text: as §1, §2, §3
Target sequence in this assay (Q86WV6 140-343 H232R): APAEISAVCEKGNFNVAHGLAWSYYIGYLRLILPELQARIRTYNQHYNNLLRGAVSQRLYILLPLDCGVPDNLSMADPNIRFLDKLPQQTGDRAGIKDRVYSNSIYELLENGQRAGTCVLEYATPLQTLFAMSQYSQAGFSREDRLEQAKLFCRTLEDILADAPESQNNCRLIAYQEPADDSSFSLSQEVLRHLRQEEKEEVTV

Experiment [4] relates to peripheral blood mononuclear cell (PBMC). The experiment is described as follows: Peripheral blood mononuclear cell assay. The experiment is classed as cell-based. Conditions: PBMC, 1h with compound, washed, 15 hour incubation. The protocol: Selected compounds were tested in an in vitro peripheral blood mononuclear cell (PBMC) assay. Freshly isolated PBMCs were seeded into U-shaped shaped 96-well plates at desity 500,000 cells per well in 50 µl of RPMI 1640 medium supplemented with 10% heat inactivated FBS. Serially dilluted tested compounds were added to wells in 50 µl of cultivation medium and cell were incubated with compounds for 1h at 37° C. with 5% CO2. Plates with cells were then spun 500 g for 5 minutes and medium was removed. Cells were washed twice with the cell culture medium by the use of centrifugation and gently resuspended in 100 µl medium without compounds. After 15 hour incubation at 37° C. with 5% CO2, the cell culture medium was collected and the levels of interferon-alpha (INF-α), interferon-gamma (INF-γ) and tumor necrosis factor-alpha (TNF-α) were determined with ProcartaPlex Assays (ThermoFisher, Waltham, USA) and MAGPIX System (Merck KGaA, Darmstadt, Germany).

Where two headings read alike, the source gives them in different places.

A word on the EC50: it is the concentration at which the effect is half-maximal. For orientation: ΔTm means the change in melting temperature against a reference sample.

T2 sequence (Q86WV6 140-343 G230A/H232R/R293Q): as the sequence (Q86WV6 140-343 H232R) above, with G91A, R154Q counted along it

As for `Nc1ncnc2c1ncn2[C@@H]1O[C@@H]2/C=C/P(=O)(O)O[C@H]3[C@@H](F)[C@H](n4cnc5c(N)ncnc54)O[C@@H]3COP(=O)(O)O[C@H]2[C@H]1F` [Compound 53], the EC50 at WT STING [1] was 10.1 µM; at WT STING [2], 0.03 µM; in experiment [4] (IFN-α level in medium, read-out: PBMC EC50 IFN-α), 120 µM; in experiment [4] (IFN-γ level in medium, read-out: PBMC EC50 IFN-γ), 36 µM; in experiment [4] (TNF-α level in medium, read-out: PBMC EC50 TNF-α), 54 µM. Besides, the ΔTm at 150 µM on AQ STING (G230A-R293Q) is 11.6 °C; on WT STING [3], 6.9 °C.
